Results published in the supplement of paper PMC10307832.

How the values were obtained:
Experiment in all cases: relative viability (nuclei count vs DMSO), 5 days (fraction); higher = more cells survive
[1] = test system: SK-MES-1
Summary of the method: (§1)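 Lung cancer cell lines in 1536-well plates were dosed by pin tool the day after seeding, either with one drug alone or with a fixed anchor-drug dose plus five library-drug doses (not always all listed) in √10 steps. After 5 days, cells were fixed and their nuclei stained in one step (final 0.05% Triton X-100, 1% formaldehyde, 1 ug/ml Hoechst), then counted on 4× images. Relative viability is the nuclei count in treated wells divided by that in vehicle wells. Values are medians of duplicate plates.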

[2] = test system: NCI-H3122
Summary of the method: as §1

[3] = test system: HCC-78
Summary of the method: as §1

[4] = test system: NCI-H596
Summary of the method: as §1

[5] = test system: NCI-H2085
Summary of the method: as §1

[6] = test system: RERF-LC-KJ
Summary of the method: as §1

[7] = test system: NCI-H838
Summary of the method: as §1

[8] = test system: PC-14
Summary of the method: as §1

[9] = test system: NCI-H1993
Summary of the method: as §1

[10] = test system: NCI-H2228
Summary of the method: as §1

[11] = test system: LC-2-ad
Summary of the method: as §1

[12] = test system: SW 1573
Summary of the method: as §1

[13] = test system: NCI-H2347
Summary of the method: as §1

[14] = test system: NCI-H2405
Summary of the method: as §1

[15] = test system: HCC-366
Summary of the method: as §1

[16] = test system: LK-2
Summary of the method: as §1

[17] = test system: EMC-BAC-2
Summary of the method: as §1

[18] = test system: NCI-H1355
Summary of the method: as §1

[19] = test system: HOP-62
Summary of the method: as §1

[20] = test system: CAL-12T
Summary of the method: as §1

[21] = test system: NCI-H1734
Summary of the method: as §1

[22] = test system: ChaGo-K-1
Summary of the method: as §1

[23] = test system: NCI-H2009
Summary of the method: as §1

O=c1[nH]c2ccccc2n1C1CCN(CCCC(c2ccc(F)cc2)c2ccc(F)cc2)CC1 [Pimozide] + COc1cccc2cc(-c3nc([C@H]4CC[C@H](C(=O)O)CC4)n4ncnc(N)c34)[nH]c12 [OSI-027] (partner 0.5 µM)
relative viability ([1]; first compound 0.08 µM): 0.61 | relative viability ([1]; first compound 0.253 µM): 0.572 | relative viability ([1]; first compound 0.8 µM): 0.546 | relative viability ([1]; first compound 2.53 µM): 0.586 | relative viability ([1]; first compound 8 µM): 0.463 | relative viability ([2]; first compound 0.08 µM): 1.01 | relative viability ([2]; first compound 0.253 µM): 0.873 | relative viability ([2]; first compound 0.8 µM): 0.826 | relative viability ([2]; first compound 2.53 µM): 0.926 | relative viability ([2]; first compound 8 µM): 0.822 | relative viability ([3]; first compound 0.08 µM): 0.439 | relative viability ([3]; first compound 0.8 µM): 0.345 | relative viability ([3]; first compound 2.53 µM): 0.36 | relative viability ([3]; first compound 8 µM): 0.354 | relative viability ([4]; first compound 0.08 µM): 0.627 | relative viability ([4]; first compound 0.253 µM): 0.851 | relative viability ([4]; first compound 0.8 µM): 0.642 | relative viability ([4]; first compound 2.53 µM): 0.627 | relative viability ([4]; first compound 8 µM): 0.481 | relative viability ([5]; first compound 0.08 µM): 0.59 | relative viability ([5]; first compound 0.253 µM): 0.736 | relative viability ([5]; first compound 0.8 µM): 0.701 | relative viability ([5]; first compound 2.53 µM): 0.709 | relative viability ([5]; first compound 8 µM): 0.61 | relative viability ([6]; first compound 0.08 µM): 0.509 | relative viability ([6]; first compound 0.253 µM): 0.513 | relative viability ([6]; first compound 0.8 µM): 0.52 | relative viability ([6]; first compound 2.53 µM): 0.427 | relative viability ([6]; first compound 8 µM): 0.448 | relative viability ([7]; first compound 0.08 µM): 0.409 | relative viability ([7]; first compound 0.253 µM): 0.388 | relative viability ([7]; first compound 0.8 µM): 0.33 | relative viability ([7]; first compound 2.53 µM): 0.4 | relative viability ([7]; first compound 8 µM): 0.353 | relative viability ([8]; first compound 0.08 µM): 0.182 | relative viability ([8]; first compound 0.253 µM): 0.743 | relative viability ([8]; first compound 0.8 µM): 0.764 | relative viability ([8]; first compound 2.53 µM): 0.624 | relative viability ([8]; first compound 8 µM): 0.621 | relative viability ([9]; first compound 0.08 µM): 0.562 | relative viability ([9]; first compound 0.253 µM): 0.572 | relative viability ([9]; first compound 0.8 µM): 0.539 | relative viability ([9]; first compound 2.53 µM): 0.581 | relative viability ([9]; first compound 8 µM): 0.479 | relative viability ([10]; first compound 0.08 µM): 0.537 | relative viability ([10]; first compound 0.253 µM): 0.644 | relative viability ([10]; first compound 0.8 µM): 0.587 | relative viability ([10]; first compound 2.53 µM): 0.451 | relative viability ([10]; first compound 8 µM): 0.221 | relative viability ([11]; first compound 0.08 µM): 0.694 | relative viability ([11]; first compound 0.253 µM): 0.875 | relative viability ([11]; first compound 0.8 µM): 0.735 | relative viability ([11]; first compound 2.53 µM): 0.681 | relative viability ([11]; first compound 8 µM): 0.635 | relative viability ([12]; first compound 0.08 µM): 0.611 | relative viability ([12]; first compound 0.253 µM): 0.668 | relative viability ([12]; first compound 0.8 µM): 0.602 | relative viability ([12]; first compound 2.53 µM): 0.525 | relative viability ([12]; first compound 8 µM): 0.307 | relative viability ([13]; first compound 0.253 µM): 0.497 | relative viability ([13]; first compound 0.8 µM): 0.413 | relative viability ([13]; first compound 2.53 µM): 0.39 | relative viability ([13]; first compound 8 µM): 0.359 | relative viability ([14]; first compound 0.08 µM): 0.654 | relative viability ([14]; first compound 0.253 µM): 0.576 | relative viability ([14]; first compound 0.8 µM): 0.689 | relative viability ([14]; first compound 2.53 µM): 0.665 | relative viability ([14]; first compound 8 µM): 0.707 | relative viability ([15]; first compound 0.08 µM): 0.825 | relative viability ([15]; first compound 0.253 µM): 0.795 | relative viability ([15]; first compound 0.8 µM): 0.477 | relative viability ([15]; first compound 2.53 µM): 0.614 | relative viability ([15]; first compound 8 µM): 0.206 | relative viability ([16]; first compound 0.08 µM): 0.183 | relative viability ([16]; first compound 0.253 µM): 0.249 | relative viability ([16]; first compound 0.8 µM): 0.179 | relative viability ([16]; first compound 2.53 µM): 0.198 | relative viability ([16]; first compound 8 µM): 0.167 | relative viability ([17]; first compound 0.08 µM): 0.353 | relative viability ([17]; first compound 0.253 µM): 0.337 | relative viability ([17]; first compound 0.8 µM): 0.342 | relative viability ([17]; first compound 2.53 µM): 0.338 | relative viability ([17]; first compound 8 µM): 0.391 | relative viability ([18]; first compound 0.08 µM): 0.326 | relative viability ([18]; first compound 0.253 µM): 0.398 | relative viability ([18]; first compound 0.8 µM): 0.305 | relative viability ([18]; first compound 2.53 µM): 0.357 | relative viability ([18]; first compound 8 µM): 0.34 | relative viability ([19]; first compound 0.08 µM): 0.859 | relative viability ([19]; first compound 0.253 µM): 0.806 | relative viability ([19]; first compound 2.53 µM): 0.759 | relative viability ([19]; first compound 8 µM): 0.773 | relative viability ([20]; first compound 0.08 µM): 0.756 | relative viability ([20]; first compound 0.253 µM): 0.706 | relative viability ([20]; first compound 0.8 µM): 0.673 | relative viability ([20]; first compound 2.53 µM): 0.41 | relative viability ([20]; first compound 8 µM): 0.561 | relative viability ([21]; first compound 0.08 µM): 0.604 | relative viability ([21]; first compound 0.253 µM): 0.625 | relative viability ([21]; first compound 2.53 µM): 0.581 | relative viability ([21]; first compound 8 µM): 0.549 | relative viability ([22]; first compound 0.08 µM): 0.594 | relative viability ([22]; first compound 0.253 µM): 0.555 | relative viability ([22]; first compound 0.8 µM): 0.517 | relative viability ([22]; first compound 2.53 µM): 0.531 | relative viability ([22]; first compound 8 µM): 0.485 | relative viability ([23]; first compound 0.08 µM): 0.69 | relative viability ([23]; first compound 0.253 µM): 0.655 | relative viability ([23]; first compound 0.8 µM): 0.671 | relative viability ([23]; first compound 2.53 µM): 0.526 | relative viability ([23]; first compound 8 µM): 0.416
